Assay results taken from US7109380B2, “Cyclopentenedione antifungal compounds and methods for their use” (The University of Mississippi, priority 2004, dated 2006).
Converted amounts (≈) assume the structure as drawn.

Columns and labels:
[1] = system: M. intracellulare ATCC 23068; assay: In vitro antibacterial assay (modified method of Franzblau, Alamar Blue); assay type: cell-based; settings: Mycobacterium intracellulare, ATCC23068, M. intracellulare ATCC 23068; for IC50: read-out: IC50 (50% inhibitory concentration); for MBC: read-out: MBC (Minimum Bactericidal Concentration)
C. krusei ATCC 6258 = assay: In vitro antimicrobial assay (modified NCCLS), Candida media pH 4.5; assay type: cell-based, Candida krusei; settings: Pichia kudriavzevii, ATCC6258; C. krusei ATCC 6258, pH 4.5; read-out: IC50 (50% inhibitory concentration)
C. albicans ATCC 90028 = assay: as above; assay type: cell-based, Candida albicans; settings: Candida albicans, ATCC90028, C. albicans ATCC 90028, pH 4.5, Table 3; for IC50: read-out: IC50 (50% inhibitory concentration); for MFC: read-out: MFC; for MIC: read-out: MIC
[2] = system: Cryptococcus neoformans ATCC 90113; assay: In vitro antifungal susceptibility testing (modified NCCLS method); assay type: cell-based; settings: Cryptococcus neoformans, ATCC90113, Cr. neoformans ATCC 90113, Table 3; for IC50: read-out: IC50 (50% inhibitory concentration)
C. glabrata ATCC 90030 = assay: In vitro antimicrobial assay (modified NCCLS), Candida media pH 4.5; assay type: cell-based, Candida glabrata; settings: Nakaseomyces glabratus, ATCC90030, C. glabrata ATCC 90030, pH 4.5; for IC50: read-out: IC50 (50% inhibitory concentration); for MIC: read-out: MIC
Colletotrichum acutatum = assay: 96-well microtiter fungal growth assay; assay type: cell-based;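 note: percent relative to untreated positive growth controls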
Text: (§1) Pathogen collection. Isolates of Colletotrichum acutatum Simmonds, Colletotrichum fragariae Brooks, and Colletotrichum gloeosporioides (Penz.) Penz. & Sacc. in Penz. were obtained from B. J. Smith, USDA, ARS, Small Fruit Research Station, Poplarville, Mass. Colletotrichum fragariae (isolate CF63), C. acutatum (isolate CAGoff), and C. gloeosporioides (isolate CG162) were used for all pathogen and bioautography studies. Isolate CF63 is one of the most virulent isolates at infecting strawberry plants and inducing both crown and fruit rot (Smith and Black, 1990). CF63, CAGoff, and CG162 were used as standard test isolates because of our extensive knowledge of these isolates and their known fungicide sensitivity profiles in both bioautography and microtiter formats. The three Colletotrichum species were isolated from strawberry (Fragaria xananassa Duchesne). Botrytis cinerea Pers.:Fr, was isolated from commercial grape (Vitis vinifera L.) and Fusarium oxysporum Schlechtend:Fr from orchid (Cynoches sp.) by David E. Wedge, USDA ARS Natural Products Utilization Research Unit. Phomopsis viticola (Sacc.) and P. obscurans (Ellis & Everh.) Sutton were from Mike A. Ellis, Ohio State University, Wooster, Ohio. Fungi were grown on potato-dextrose agar (PDA, Difco, Detroit Mich.) in 9 cm petri dishes and incubated in a growth chamber at 24±2° C. and under cool-white fluorescent lights ([…]·m^−2·sec^−1 light) with 12-h photoperiod.
(§2) Inoculum preparation. Conidia were harvested from 7–10 day-old cultures by flooding plates with 5 mL of sterile distilled water and dislodging conidia by softly brushing the colonies with an L-shaped glass rod. Conidial suspensions were filtered through sterile miracloth (Calbiochem-Novabiochem Corp., La Jolla Calif.) to remove mycelia. Conidia concentrations were determined photometrically, from a standard curve based on the absorbance at 625 nm and suspensions were then adjusted with sterile distilled water to a concentration of 1.0×10^6 conidia/mL.
(§3) Microtiter assay. A standardized 96-well microtiter plate assay developed for discovery of natural product fungicidal agents. A 96-well microtiter assay was used to determine sensitivity of B. cinerea, C. acutatum, C. fragariae, C. gloeosporioides, F. oxysporum, Phomopsis viticola, and P. obscurans to the various antifungal agents in comparison with known fungicidal standards. Vinclozolin, captan, and thiabendazole, which represent three different modes of action, were used as standards in this experiment. Each fungus was challenged in a dose-response format using test compounds where the final treatment concentrations were 0.3, 3.0 and 30.0 μM. Microtiter plates (Nunc MicroWell, untreated; Roskilde, Denmark) were covered with a plastic lid and incubated in a growth chamber at 24±1 C and 12 h photoperiod under 60±5 μmol light. Growth was then evaluated by measuring absorbance of each well at 620 nm using a microplate photometer (Packard Spectra Count, Packard Instrument Co., Downers Grove, Ill.).
(§4) Microbioassay Experimental Design. Chemical sensitivity of each fungus 96-well microtiter assay is used to determine sensitivity of B. cinerea, C. acutatum, C. fragariae, C. gloeosporioides, F. oxysporum, Phomopsis viticola, and P. obscurans. Each chemical is evaluated in duplicate at each dose (0.3, 3.0 and 30.0 μM) and repeated twice in time. Sixteen wells containing broth and inoculum serves as positive controls, eight wells containing solvent at the appropriate concentration and broth without inoculum are used as negative controls. Mean absorbance values and standard errors is used to evaluate fungal growth at 48 hrs and 72 hrs except for P. obscurans and P. viticola the data are recorded at 120 hrs. […] Treatments are arranged as a split-plot design replicated twice in time. Whole-plots were fungal isolates and sub-plots are chemicals. Each dose level and response time is analyzed separately. […]

Fusarium oxysporum = assay: 96-well microtiter fungal growth assay; assay type: cell-based;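 note: percent relative to untreated positive growth controls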
Text: as §1, §2, §3, §4

Botrytis cinerea = assay: 96-well microtiter fungal growth assay; assay type: cell-based;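 note: percent relative to untreated positive growth controls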
Text: as §1, §2, §3, §4

[3] = system: Colletotrichum gloeosporioides; assay: 96-well microtiter fungal growth assay; assay type: cell-based;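 note: percent relative to untreated positive growth controls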
Text: as §1, §2, §3, §4

Colletotrichum fragariae = assay: 96-well microtiter fungal growth assay; assay type: cell-based;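 note: percent relative to untreated positive growth controls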
Text: as §1, §2, §3, §4

Phomopsis obscurans = assay: 96-well microtiter fungal growth assay; assay type: cell-based
Text: as §1, §2, §3
(§5) Microbioassay Experimental Design. Chemical sensitivity of each fungus 96-well microtiter assay is used to determine sensitivity of B. cinerea, C. acutatum, C. fragariae, C. gloeosporioides, F. oxysporum, Phomopsis viticola, and P. obscurans. Each chemical is evaluated in duplicate at each dose (0.3, 3.0 and 30.0 μM) and repeated twice in time. Sixteen wells containing broth and inoculum serves as positive controls, eight wells containing solvent at the appropriate concentration and broth without inoculum are used as negative controls. […] Treatments are arranged as a split-plot design replicated twice in time. Whole-plots were fungal isolates and sub-plots are chemicals. Each dose level and response time is analyzed separately. The SAS system's analysis of variance procedure (Statistical Analysis System, Cary, N.C.) is used to identify significant factors and Fisher's protected LSD is used to separate means.

Phomopsis viticola = assay: 96-well microtiter fungal growth assay; assay type: cell-based;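 for Mean percent fungal growth inhibition of Phomopsis viticola: percent relative to untreated positive growth controls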
Text: as §1, §2, §3, §5

`O=C(O)c1cn(C2CC2)c2cc(N3CCNCC3)c(F)cc2c1=O` [CIP, ciprofloxacin, reference compound] showed an MIC [1] of 0.63 µg/mL (≈ 1.9 µM), an IC50 [1] of 0.3 µg/mL (≈ 0.905 µM) and an MBC [1] of 1.25 µg/mL (≈ 3.77 µM).
`CCOC(/C=C/c1ccccc1)=C1/C(=O)C=C(C)C1=O` [Compound 7] was tested, and the IC50 (C. krusei ATCC 6258) was 8 µg/mL (≈ 29.8 µM), the IC50 (C. albicans ATCC 90028) was 2 µg/mL (≈ 7.45 µM) and the MFC (C. albicans ATCC 90028) was 10 µg/mL (≈ 37.3 µM). For the same compound, the MIC (C. albicans ATCC 90028) was 5 µg/mL (≈ 18.6 µM), the IC50 [2] was 2 µg/mL (≈ 7.45 µM) and the MIC ([2]; read-out: MIC) was 20 µg/mL (≈ 74.5 µM). For the same compound, the IC50 (C. glabrata ATCC 90030) was 4.5 µg/mL (≈ 16.8 µM), the MFC (C. glabrata ATCC 90030; read-out: MFC) was 20 µg/mL (≈ 74.5 µM) and the MIC (C. glabrata ATCC 90030) was 10 µg/mL (≈ 37.3 µM). It also gave an MIC [1] of 20 µg/mL (≈ 74.5 µM), an IC50 [1] of 7.5 µg/mL (≈ 28 µM) and an MBC [1] of 20 µg/mL (≈ 74.5 µM).
`CC(=O)OC(/C=C/c1ccccc1)=C1/C(=O)C=C(C)C1=O` [Compound 8] gave an IC50 (C. krusei ATCC 6258) of 9 µg/mL (≈ 31.9 µM), an IC50 (C. albicans ATCC 90028) of 1 µg/mL (≈ 3.54 µM) and an MIC (C. albicans ATCC 90028) of 10 µg/mL (≈ 35.4 µM). It also gave an IC50 [2] of 4.5 µg/mL (≈ 15.9 µM), an IC50 (C. glabrata ATCC 90030) of 5.5 µg/mL (≈ 19.5 µM) and an MIC [1] of 20 µg/mL (≈ 70.8 µM). It also gave an IC50 [1] of 15 µg/mL (≈ 53.1 µM) and an MBC [1] of 20 µg/mL (≈ 70.8 µM).
Compound `COC(C)=C1C(=O)C=C(C)C1=O` [Compound 6, 2-(1-methoxy-ethylidene)-4-methyl-cyclopent-4-ene-1,3-dione] has an IC50 (C. krusei ATCC 6258) of 10 µg/mL (≈ 60.2 µM), an IC50 (C. albicans ATCC 90028) of 2 µg/mL (≈ 12 µM) and an MFC (C. albicans ATCC 90028) of 20 µg/mL (≈ 120 µM). It also gave an MIC (C. albicans ATCC 90028) of 5 µg/mL (≈ 30.1 µM), an IC50 [2] of 5 µg/mL (≈ 30.1 µM) and an IC50 (C. glabrata ATCC 90030) of 3.5 µg/mL (≈ 21.1 µM). It also gave an MIC (C. glabrata ATCC 90030) of 5 µg/mL (≈ 30.1 µM).
In the case of `O=C1C2CC=CCC2C(=O)N1SC(Cl)(Cl)Cl` (stereo not drawn) [Captan], the “Mean percent fungal growth inhibition of Colletotrichum acutatum” value (Colletotrichum acutatum; 0.3 μm, 48 hrs) is reported as 42.5 ± 8.8%, the “Mean percent fungal growth inhibition of Colletotrichum acutatum” value (Colletotrichum acutatum; 0.3 μm, 72 hrs) is reported as 35.4 ± 6.1% and the “Mean percent fungal growth inhibition of Colletotrichum acutatum” value (Colletotrichum acutatum; 3.0 μm, 48 hrs) is reported as −98.0 ± 0.9%. The “Mean percent fungal growth inhibition of Colletotrichum acutatum” value (Colletotrichum acutatum; 3.0 μm, 72 hrs) was −94.1 ± 3.0%, the “Mean percent fungal growth inhibition of Colletotrichum acutatum” value (Colletotrichum acutatum; 30 μm, 48 hrs) was −98.6 ± 0.5% and the “Mean percent fungal growth inhibition of Colletotrichum acutatum” value (Colletotrichum acutatum; 30 μm, 72 hrs) was −99.7 ± 0.2%. For the same compound, the “Mean percent fungal growth inhibition of Fusarium oxysporum” value (Fusarium oxysporum; 0.3 μm, 48 hrs) was 13.6 ± 3.5%, the “Mean percent fungal growth inhibition of Fusarium oxysporum” value (Fusarium oxysporum; 0.3 μm, 72 hrs) was 12.0 ± 2.2% and the “Mean percent fungal growth inhibition of Fusarium oxysporum” value (Fusarium oxysporum; 3.0 μm, 48 hrs) was −50.0 ± 2.8%. For the same compound, the “Mean percent fungal growth inhibition of Fusarium oxysporum” value (Fusarium oxysporum; 3.0 μm, 72 hrs) was −5.4 ± 4.4%, the “Mean percent fungal growth inhibition of Fusarium oxysporum” value (Fusarium oxysporum; 30 μm, 48 hrs) was −99.4 ± 0.3% and the “Mean percent fungal growth inhibition of Fusarium oxysporum” value (Fusarium oxysporum; 30 μm, 72 hrs) was −99.5 ± 0.4%. The “Mean percent fungal growth inhibition of Botrytis cinerea” value (Botrytis cinerea; 0.3 μm, 48 hrs) was 3.1 ± 26.7%, the “Mean percent fungal growth inhibition of Botrytis cinerea” value (Botrytis cinerea; 0.3 μm, 72 hrs) was 3.4 ± 5.8% and the “Mean percent fungal growth inhibition of Botrytis cinerea” value (Botrytis cinerea; 3.0 μm, 48 hrs) was −45.9 ± 22.2%. The “Mean percent fungal growth inhibition of Botrytis cinerea” value (Botrytis cinerea; 3.0 μm, 72 hrs) was −46.1 ± 5.6%, the “Mean percent fungal growth inhibition of Botrytis cinerea” value (Botrytis cinerea; 30 μm, 48 hrs) was −76.4 ± 13.4% and the “Mean percent fungal growth inhibition of Botrytis cinerea” value (Botrytis cinerea; 30 μm, 72 hrs) was −98.7 ± 0.9%. For the same compound, the “Mean percent fungal growth inhibition of Colletotrichum gloeosporoides” value ([3]; 0.3 μm, 48 hrs) was 31.5 ± 7.3%, the “Mean percent fungal growth inhibition of Colletotrichum gloeosporoides” value ([3]; 0.3 μm, 72 hrs) was 38.6 ± 4.5% and the “Mean percent fungal growth inhibition of Colletotrichum gloeosporoides” value ([3]; 3.0 μm, 48 hrs) was −97.3 ± 1.5%. The “Mean percent fungal growth inhibition of Colletotrichum gloeosporoides” value ([3]; 3.0 μm, 72 hrs) was −95.2 ± 1.9%, the “Mean percent fungal growth inhibition of Colletotrichum gloeosporoides” value ([3]; 30 μm, 48 hrs) was −98.4 ± 0.5% and the “Mean percent fungal growth inhibition of Colletotrichum gloeosporoides” value ([3]; 30 μm, 72 hrs) was −98.6 ± 1.7%. The “Mean percent fungal growth inhibition of Colletotrichum fragariae” value (Colletotrichum fragariae; 0.3 μm, 48 hrs) was 18.1 ± 2.7%, the “Mean percent fungal growth inhibition of Colletotrichum fragariae” value (Colletotrichum fragariae; 0.3 μm, 72 hrs) was −17.5 ± 15.6% and the “Mean percent fungal growth inhibition of Colletotrichum fragariae” value (Colletotrichum fragariae; 3.0 μm, 48 hrs) was −96.2 ± 1.0%. For the same compound, the “Mean percent fungal growth inhibition of Colletotrichum fragariae” value (Colletotrichum fragariae; 3.0 μm, 72 hrs) was −74.0 ± 9.3%, the “Mean percent fungal growth inhibition of Colletotrichum fragariae” value (Colletotrichum fragariae; 30 μm, 48 hrs) was −99.7 ± 1.0% and the “Mean percent fungal growth inhibition of Colletotrichum fragariae” value (Colletotrichum fragariae; 30 μm, 72 hrs) was −91.4 ± 5.2%. The “Percent change in fungal growth vs control (negative = inhibition)” value (“Percent change … (negative = inhibition)” for short) (Phomopsis obscurans; 0.3 μm, 120 hrs) was −37.3 ± 6.6%, the “Percent change … (negative = inhibition)” value (Phomopsis obscurans; 0.3 μm, 144 hrs) was −30.9 ± 6.3% and the “Percent change … (negative = inhibition)” value (Phomopsis obscurans; 3.0 μm, 120 hrs) was −96.0 ± 1.8%. The “Percent change … (negative = inhibition)” value (Phomopsis obscurans; 3.0 μm, 144 hrs) was −98.3 ± 0.6%, the “Percent change … (negative = inhibition)” value (Phomopsis obscurans; 30 μm, 120 hrs) was −100 ± 0.0% and the “Percent change … (negative = inhibition)” value (Phomopsis obscurans; 30 μm, 144 hrs) was −99.6 ± 0.2%. The “Mean percent fungal growth inhibition of Phomopsis viticola” value (Phomopsis viticola; 0.3 μm, 120 hrs) was −118.5 ± 198.7%, the “Mean percent fungal growth inhibition of Phomopsis viticola” value (Phomopsis viticola; 3.0 μm, 120 hrs) was −99.8 ± 38.2% and the “Mean percent fungal growth inhibition of Phomopsis viticola” value (Phomopsis viticola; 3.0 μm, 144 hrs) was −95.7 ± 26.0%. For the same compound, the “Mean percent fungal growth inhibition of Phomopsis viticola” value (Phomopsis viticola; 30 μm, 120 hrs) was −100.0 ± 0.0%, the “Mean percent fungal growth inhibition of Phomopsis viticola” value (Phomopsis viticola; 30 μm, 144 hrs) was −67.8 ± 21.5% and the IC50 (Phomopsis viticola; Diaporthe ampelina, 72 h, read-out: IC50 (growth inhibition)) was under 3.1 µM.
